Measured values: ChEMBL document CHEMBL3352096, “New 9,19-cycloartenol glycosides isolated from the roots of Cimicifuga simplex and their anti-inflammatory effects” (Bioorg Med Chem Lett, 2014)
The source made the active and inactive calls.

What was measured:
Assay type in all cases: functional, cell-based
RAW [1] = assay: Antiinflammatory activity against mouse RAW cells assessed as inhibition of LPS-induced IL-23 production at 10 uM by Q-PCR analysis
RAW [2] = assay: Antiinflammatory activity against mouse RAW cells assessed as inhibition of LPS-induced IL-6 production at 10 uM by Q-PCR analysis
RAW [3] = assay: Antiinflammatory activity against mouse RAW cells assessed as inhibition of LPS-induced TNFalpha production at 10 uM by Q-PCR analysis

Measured: inhibition

CC(=O)O[C@@H]1C[C@@]23C[C@@]24CC[C@H](O[C@@H]2O[C@H](CO)[C@H](O)[C@H](O)[C@H]2O)C(C)(C)[C@@H]4CC[C@H]3[C@]2(C)C[C@]3(O)O[C@H](C(=O)[C@@H]4OC4(C)C)[C@@H](C)[C@@H]3[C@@]12C
active: RAW [1] | RAW [2] | RAW [3]

CC(=O)O[C@@H]1C[C@@]23C[C@@]24CC[C@H](O[C@@H]2OC[C@@H](O)[C@H](O)[C@H]2O)C(C)(C)[C@@H]4CC=C3[C@]2(C)C[C@]3(O)O[C@H](C(=O)[C@@H]4OC4(C)C)[C@@H](C)[C@@H]3[C@@]12C
active: RAW [1] | RAW [2] | RAW [3]
